Laboratory results as given in ChEMBL document CHEMBL1201862, “PubChem BioAssay data set” (2004).
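Compound exposure: 48 hours, 5 concentrations, 96-well plates. Here, GI50 denotes the concentration required for 50% inhibition of growth.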 Activity calls are given as the source filed them. Rule as the data show it: active = GI50 up to about 1.1 µM and inactive = higher.

Columns and labels:
Assay in all cases: growth of human tumour cells (NCI), 48 h
[1] = tested on: HCC 2998
[2] = tested on: CCRF-CEM
[3] = tested on: KM12
[4] = tested on: OVCAR-3
[5] = tested on: RPMI-8226
[6] = tested on: SW-620
[7] = tested on: SR
[8] = tested on: SNB-19
[9] = tested on: RXF 393
[10] = tested on: Hs-578T
[11] = tested on: A549
[12] = tested on: HT-29
[13] = tested on: MOLT-4
[14] = tested on: HOP-62
[15] = tested on: SF-295
[16] = tested on: SK-MEL-28
[17] = tested on: SK-OV-3
[18] = tested on: DU-145
[19] = tested on: TK-10
[20] = tested on: M14
[21] = tested on: NCI-H460
[22] = tested on: OVCAR-5
[23] = tested on: MDA-MB-435
[24] = tested on: IGROV-1
[25] = tested on: A498
[26] = tested on: NCI-H226
[27] = tested on: CAKI-1
[28] = tested on: K562
[29] = tested on: COLO 205
[30] = tested on: UACC-257
[31] = tested on: U-251
[32] = tested on: PC-3
[33] = tested on: ACHN
[34] = tested on: SF-539
[35] = tested on: NCI-H522
[36] = tested on: BT-549
[37] = tested on: Malme-3M
[38] = tested on: SK-MEL-2
[39] = tested on: LOX IMVI
[40] = tested on: HCT-15
[41] = tested on: HOP-92
[42] = tested on: MDA-N
[43] = tested on: UO-31
[44] = tested on: 786-0
[45] = tested on: HCT-116
[46] = tested on: MCF7
[47] = tested on: OVCAR-4
[48] = tested on: EKVX
[49] = tested on: NCI-H23
[50] = tested on: UACC-62
[51] = tested on: HL-60
[52] = tested on: MDA-MB-231
[53] = tested on: SN12C
[54] = tested on: SF-268
[55] = tested on: SK-MEL-5
[56] = tested on: T47D
[57] = tested on: NCI/ADR-RES
[58] = tested on: OVCAR-8
[59] = tested on: SNB-75

CSc1ncnc2c1cnn2CCCCO
GI50 [1]: > 100 µM (inactive) | GI50 [2]: > 100 µM (inactive) | GI50 [3]: > 100 µM (inactive) | GI50 [4]: > 100 µM (inactive) | GI50 [5]: > 100 µM (inactive) | GI50 [6]: > 100 µM (inactive) | GI50 [7]: > 100 µM (inactive) | GI50 [8]: > 100 µM (inactive) | GI50 [9]: > 100 µM (inactive) | GI50 [10]: > 100 µM (inactive) | GI50 [11]: > 100 µM (inactive) | GI50 [12]: > 100 µM (inactive) | GI50 [13]: > 100 µM (inactive) | GI50 [14]: > 100 µM (inactive) | GI50 [15]: > 100 µM (inactive) | GI50 [16]: > 100 µM (inactive) | GI50 [17]: > 100 µM (inactive) | GI50 [18]: > 100 µM (inactive) | GI50 [19]: > 100 µM (inactive) | GI50 [20]: > 100 µM (inactive) | GI50 [21]: > 100 µM (inactive) | GI50 [22]: > 100 µM (inactive) | GI50 [23]: > 100 µM (inactive) | GI50 [24]: > 100 µM (inactive) | GI50 [25]: > 100 µM (inactive) | GI50 [26]: > 100 µM (inactive) | GI50 [27]: > 100 µM (inactive) | GI50 [28]: > 100 µM (inactive) | GI50 [29]: > 100 µM (inactive) | GI50 [30]: > 100 µM (inactive) | GI50 [31]: > 100 µM (inactive) | GI50 [32]: > 100 µM (inactive) | GI50 [33]: > 100 µM (inactive) | GI50 [34]: > 100 µM (inactive) | GI50 [35]: > 100 µM (inactive) | GI50 [36]: > 100 µM (inactive) | GI50 [37]: > 100 µM (inactive) | GI50 [38]: > 100 µM (inactive) | GI50 [39]: > 100 µM (inactive) | GI50 [40]: > 100 µM | GI50 [41]: > 100 µM (inactive) | GI50 [42]: > 100 µM (inactive) | GI50 [43]: > 100 µM (inactive) | GI50 [44]: > 100 µM (inactive) | GI50 [45]: > 100 µM (inactive) | GI50 [46]: > 100 µM (inactive) | GI50 [47]: > 100 µM (inactive) | GI50 [48]: > 100 µM (inactive) | GI50 [49]: > 100 µM (inactive) | GI50 [50]: > 100 µM (inactive) | GI50 [51]: > 100 µM (inactive) | GI50 [52]: > 100 µM (inactive) | GI50 [53]: > 100 µM (inactive) | GI50 [54]: > 100 µM (inactive) | GI50 [55]: > 100 µM (inactive) | GI50 [56]: > 100 µM (inactive)

COC(=O)C(C(=O)OC)C1CC(=O)c2c(Br)sc(Br)c21 (stereo not drawn)
GI50 [1]: 14.3 µM (inactive) | GI50 [57]: 16.8 µM (inactive) | GI50 [2]: 4.03 µM (inactive) | GI50 [3]: 29.2 µM (inactive) | GI50 [4]: 2.06 µM (inactive) | GI50 [5]: 11.5 µM (inactive) | GI50 [6]: 11.5 µM (inactive) | GI50 [7]: 12.5 µM (inactive) | GI50 [8]: 20.5 µM (inactive) | GI50 [9]: 26.1 µM (inactive) | GI50 [10]: 20.9 µM (inactive) | GI50 [11]: 25 µM (inactive) | GI50 [12]: 15.4 µM (inactive) | GI50 [13]: 3.33 µM (inactive) | GI50 [14]: 17.3 µM (inactive) | GI50 [15]: 21.8 µM (inactive) | GI50 [16]: 16.6 µM (inactive) | GI50 [17]: 17.9 µM (inactive) | GI50 [18]: 16.4 µM (inactive) | GI50 [19]: 31.5 µM (inactive) | GI50 [20]: 18.3 µM (inactive) | GI50 [21]: 18.6 µM (inactive) | GI50 [22]: 15.1 µM (inactive) | GI50 [58]: 16.8 µM (inactive) | GI50 [23]: 17.5 µM (inactive) | GI50 [24]: 14.1 µM (inactive) | GI50 [25]: 31.5 µM (inactive) | GI50 [26]: 22 µM (inactive) | GI50 [27]: 9.06 µM (inactive) | GI50 [28]: 21 µM (inactive) | GI50 [29]: 15.2 µM (inactive) | GI50 [30]: 22 µM (inactive) | GI50 [31]: 16.3 µM (inactive) | GI50 [59]: 22.9 µM (inactive) | GI50 [32]: 14.2 µM (inactive) | GI50 [33]: 13.7 µM (inactive) | GI50 [34]: 18.6 µM (inactive) | GI50 [36]: 18.4 µM (inactive) | GI50 [37]: 13.4 µM (inactive) | GI50 [38]: 13.3 µM (inactive) | GI50 [39]: 12.9 µM (inactive) | GI50 [40]: 9.44 µM | GI50 [41]: 15.4 µM (inactive) | GI50 [42]: 23.4 µM (inactive) | GI50 [43]: 14.5 µM (inactive) | GI50 [44]: 26.1 µM (inactive) | GI50 [45]: 14.6 µM (inactive) | GI50 [46]: 13.6 µM (inactive) | GI50 [47]: 13 µM (inactive) | GI50 [48]: 15.2 µM (inactive) | GI50 [49]: 12.8 µM (inactive) | GI50 [50]: 13.5 µM (inactive) | GI50 [51]: 21.2 µM (inactive) | GI50 [53]: 14.7 µM (inactive) | GI50 [54]: 18.5 µM (inactive) | GI50 [55]: 15.1 µM (inactive) | GI50 [56]: 28.6 µM (inactive)
